Laboratory results reported in paper PMC8398766, “Do Small Molecules Activate the TrkB Receptor in the Same Manner as BDNF? Limitations of Published TrkB Low Molecular Agonists and Screening for Novel TrkB Orthosteric Agonists” (Pharmaceuticals, 2021).

How the values were obtained:
[1] = biological target: T1, exTrkB (Homo sapiens, UniProt Q16620); assay: MST binding affinity (Kd) determination
T1 construct: human TrkB receptor (exTrkB), residues 1−430, was cloned into the pCMV2 expression vector; made in house; host or cells: ExpiCHO-S cells
T1 sequence (Q16620 32-430): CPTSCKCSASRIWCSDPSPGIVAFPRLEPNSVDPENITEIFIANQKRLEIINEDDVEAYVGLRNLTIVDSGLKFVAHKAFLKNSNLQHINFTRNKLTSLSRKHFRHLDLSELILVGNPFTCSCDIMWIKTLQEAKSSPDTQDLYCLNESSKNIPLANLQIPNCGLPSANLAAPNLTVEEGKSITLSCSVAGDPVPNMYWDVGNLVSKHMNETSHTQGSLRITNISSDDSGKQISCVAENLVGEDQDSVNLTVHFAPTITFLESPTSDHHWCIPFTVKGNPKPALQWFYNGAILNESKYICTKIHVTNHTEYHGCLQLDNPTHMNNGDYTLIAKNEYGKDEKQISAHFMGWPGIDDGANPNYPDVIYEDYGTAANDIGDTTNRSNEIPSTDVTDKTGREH
Method: The gene encoding the extracellular domain of the human TrkB receptor (exTrkB), residues 1−430, was cloned into the pCMV2 expression vector. Protein expression was performed in suspension-cultivated mammalian ExpiCHO-S cells using the ExpiFectamine (Thermo Scientific, Thermo Fisher Scientific, Waltham, MA, USA) transfection reagent. The secreted protein was purified using a four-step protocol. Clarified culture medium was precipitated with ammonium sulfate added to a final concentration of 1.5 M and centrifuged (235,000× g, 60 min at 4 °C). The supernatant after centrifugation was applied on a HiTrap Phenyl column (GE Healthcare, Chicago, IL, USA) equilibrated with buffer A (25 mM Tris, 1 mM DTT; pH 7.5) with 1.5 M ammonium sulfate. Bound proteins were eluted with a linear gradient of buffer A. The eluted proteins were dialyzed overnight in buffer A and loaded on a CaptoQ ImpRes column (GE Healthcare) equilibrated with buffer A with 50 mM NaCl. The bound proteins were eluted with a linear gradient of buffer A with 1 M NaCl. The fractions containing exTrkB protein were pooled, and MnCl2 and CaCl2 (1mM final concentration each) were added. The sample was purified on a HiTrap Con A 4B column (GE Healthcare) equilibrated with buffer B (25 mM Tris, 0.5 M NaCl, 1 mM MnCl2, 1 mM CaCl2; pH 7.5) and eluted with buffer C (25 mM Tris, 0.1 M NaCl, 0.4 M α-D-glucopyranoside; pH 6.5). To improve the protein recovery, buffer C flow was paused nine times during elution. The eluted fractions were concentrated and purified by size-exclusion chromatography on a HiLoad 16/600 Superdex 200 column (GE Healthcare) in buffer A with 0.5 M NaCl. The protein samples were concentrated to 1 mg/mL, and buffer was exchanged (PBS; pH 7.4). Samples were frozen in liquid nitrogen and stored at −80 °C. The protein purity was estimated by SDS–PAGE followed by Coomassie Brilliant Blue staining. The protein concentration was determined from the absorption at 280 nm using an UV NanoDrop 1000 spectrophotometer (Thermo Scientific).
The exTrkB was labeled with a Monolith Protein Labeling Kit RED-NHS 2nd Generation (NanoTemper Technologies GmbH, Munich, Germany) according to the manufacturer’s protocol. The labelling efficiency was always determined spectrophotometrically with NanoPhotometer® NP80 (Impel) in line with the manufacturer’s recommendations. Labelled exTrkB protein was aliquoted and stored at −80 °C to avoid repeated freeze–thaw cycles. Before analysis, the exTrkB protein was thawed on ice and diluted with MST buffer (50 mM Tris pH = 8; 150 mM NaCl; 10 mM MgCl2; 0.1% Tween20) to the desired concentration.
For primary screening (single-point MST experiments for signal amplitude determination), each of the 987 screened compounds were diluted in MST buffer + 0.1% Tween20 to a final concentration of 0.5 mM. The tested compounds were mixed with exTrkB solution (the final concentration of exTrkB was 20 nM) and centrifuged (10,000× g, 4 min at 4 °C) to eliminate protein and compound aggregates. Before loading to capillaries (Monolith NT.115 Capillaries, NanoTemper Technologies GmbH), the samples were incubated for 5 min at 25 °C and then placed into the MST apparatus (Monolith, NanoTemper Technologies GmbH). The experiments were performed using nano-blue excitation, LED light adjusted to 20% excitation power, and MST power set to medium, and the fluorescence signal during thermophoresis was detected after 30 s. Single-point MST experiments were performed by the determination of the amplitude signal between the unbound and bound state between the molecule and exTrkB, which was analyzed using the MO.Control Software version 1.6 (NanoTemper Technologies GmbH). A reference sample containing only exTrkB and the equivalent DMSO concentration (v/v) was included in each individual MST experiment. At least three technical replicates were prepared for each of the tested compounds. A binding affinity study was performed for 113 of the selected compounds at 16 concentration points. […]

[2] = biological target: T2, TrkB receptor (Rattus norvegicus, UniProt Q63604); assay: ELFI TrkB phosphorylation, orthosteric agonist mode, SN56 T48 cell line; format: cell-based; settings: 0.125–100 μM, 15 min
T2 construct: host or cells: SN56 T48 cell line
T2 sequence (Q63604 32-821): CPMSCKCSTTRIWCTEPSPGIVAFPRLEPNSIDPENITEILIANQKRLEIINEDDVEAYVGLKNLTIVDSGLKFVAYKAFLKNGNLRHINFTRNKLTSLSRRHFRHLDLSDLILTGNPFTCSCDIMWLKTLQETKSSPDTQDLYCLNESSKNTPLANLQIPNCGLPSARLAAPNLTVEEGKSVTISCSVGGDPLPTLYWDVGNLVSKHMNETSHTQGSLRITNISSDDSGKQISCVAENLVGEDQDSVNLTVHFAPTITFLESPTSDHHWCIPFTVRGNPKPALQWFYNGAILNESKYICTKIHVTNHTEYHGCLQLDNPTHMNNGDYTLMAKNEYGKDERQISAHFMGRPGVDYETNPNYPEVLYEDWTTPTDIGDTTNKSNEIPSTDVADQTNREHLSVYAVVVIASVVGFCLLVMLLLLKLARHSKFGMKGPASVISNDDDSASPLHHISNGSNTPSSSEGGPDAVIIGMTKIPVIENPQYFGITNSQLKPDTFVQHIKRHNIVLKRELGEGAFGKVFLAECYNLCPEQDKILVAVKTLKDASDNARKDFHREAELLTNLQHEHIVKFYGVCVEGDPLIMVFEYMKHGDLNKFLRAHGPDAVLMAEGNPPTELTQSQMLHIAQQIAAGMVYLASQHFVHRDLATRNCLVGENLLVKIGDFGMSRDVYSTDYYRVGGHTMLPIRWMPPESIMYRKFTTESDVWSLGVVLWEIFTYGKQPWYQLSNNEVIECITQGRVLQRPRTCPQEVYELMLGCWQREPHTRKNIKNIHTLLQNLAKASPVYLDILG
Method: The SN56 T48 cell line with stable overexpression of the TrkB receptor was purchased from Emory University (Atlanta, GA, USA) and cultivated according to the protocol described in Jang et al., 2010 [12]. The cell lines were cultivated with the following reagents: DMEM High Glucose, fetal bovine serum (FBS), Penicillin-Streptomycin Solution 100×, and Trypsin-EDTA 1×; all were purchased from Biowest, and G418 was from ThermoFisher Scientific. For the ELFI experiments, cells were seeded (8000/well) on a PDL-treated 96-well plate (BioCoat™, Corning Inc., Corning, NY, USA) and 6-well plate (400,000/well) for lysate collection and immunoblot analysis.
In the orthosteric agonist mode experiments, starved cells (5 h) were treated with compounds (0.125–100 μM; volume, 100 μL/well) or BDNF (0.01–10 nM; volume, 100 μL/well) dissolved in culture medium. In the allosteric modulation mode experiments, starved cells (5 h) were treated with final compound concentrations of 3, 10, and 30 μM; volume, 50 μL/well) in the presence of a rising concentration of BDNF (final concentration in well, 0.15–5 nM; volume, 50 μL/well). Corresponding treatment with DMSO (v/v) was performed for a control. Cells were treated for 15 min in both the orthosteric and allosteric modulation mode experiments.
The analysis of TrkB receptor activation was performed using the ELFI method adapted from Boltayev et al. (2017) with some modifications. After compound treatment, experiments were stopped by fixing cells with 10% buffered formalin (Kolchem, Lodz, Poland) for 20 min (volume, 100 μL/well). Afterwards, cells were permeabilized with washing buffer (TBS+ 0.1% Tween20) for 15 min, and endogenous peroxidases were quenched by 20 min of incubation with 1% H2O2 dissolved in TBS (each solution: volume, 100 μL/well). Epitopes were blocked with 10% BSA (Biowest) dissolved in washing buffer for 2 h (volume, 100 μL/well) and incubated with anti-pTrkB (Tyr707) primary antibody (Cell Signaling Technology, Danvers, MA, USA) diluted in washing buffer (1:500; overnight at 4 °C; volume, 100 μL/well). After repeated washing, cells were incubated with HRP-linked anti-rabbit antibody (Cell Signaling Technology) for 2 h (1:1000; RT; volume, 100 μL/well) and washed. The cells were then incubated with 100 μL of ImmunoCruz™ Western Blotting Luminol (Santa Cruz Biotechnology, Dallas, TX, USA) for 1 min in the dark, and the signals were measured using a microplate luminometer (VICTOR Light 1420-060, PerkinElmer®, Waltham, MA, USA). For non-specific binding, cells were treated, with the exception of primary antibody.

[3] = Metabolic stability in human liver microsomes; settings: for Metabolic stability in HLM (classification): compared with verapamil; for Clint HLM: 1 μM, phase I
[4] = Metabolic stability in mouse liver microsomes; settings: for Metabolic stability in MLM (classification): compared with verapamil; for Clint MLM: 1 μM, phase I
[5] = pH 7.4
[6] = PAMPA; settings: for PAMPA: 10 μM, 4 h
[7] = Chemical stability pH 7.4; format: physicochemical; settings: pH = 7.4, 4 h
[8] = test system: Caco-2 monolayer; assay: Caco-2 passive permeability; settings: for Papp,AB: Caco-2, apical to basal; for Papp,AB / Papp,BA: 2 h; for Papp,BA: Caco-2, basal to apical
[9] = in vivo; format: in vivo, BALB/c mice; settings: mouse, in vivo
Method: The animals were obtained from the Center of Experimental Medicine (University of Bialystok, Bialystok, Poland) and housed under standard laboratory conditions. Mice had unlimited access to water and food. All the procedures were conducted according to the guidelines of the local ethical commission (appl no. 06/2019, perm. no 10/2019). […] Four animals per time point were sacrificed at 10 min, 30 min, 1 h, 2 h, and 4 h after per os administration and 5 min, 10 min, 30 min, 1 h, and 2 h after i.v. administration. The blood (0.5 mL) was collected by heart puncture using probes with anticoagulants (K2EDTA). Plasma samples were obtained by blood centrifugation (15 min, 3000× g at 23 °C). The whole brain was dissected from the skull and washed with cold 0.9% NaCl on ice. The left hemisphere was quickly frozen in liquid nitrogen and stored at −80 °C for further bioanalytical analysis. From the right hemisphere, the hippocampus and frontal cortex were isolated, weighed, and stored at −80 °C after freezing in liquid nitrogen. Isolated structures were homogenized in N-PER cocktail (10 μL for every 1 mg of tissue) using a hand homogenizer, and then processed as described in Section 4.3.3.
For bioanalytical evaluation, brain samples were homogenized in water (3 mL for every 1 g of brain tissue). Plasma and brain samples were then prepared by precipitating proteins and extracting analytes using acetonitrile with the addition of the internal standard: 150 μL of extraction solution was added to 50 μL of biological material, mixed for 1 min and centrifuged (12,900 RPM, 4 min, 4 °C), and the supernatant was collected for analysis. Standard solutions including calibration standards and quality control samples were prepared by spiking 45 μL of biological material with 5 μL of standard working solution, adding 150 μL of extraction solution, and then mixing, centrifuging, and collecting the supernatant for analysis. The concentrations of analytes in the plasma and brain samples were determined using a UPLC-MS/MS instrument (Agilent Technologies) and chromatographic columns (Agilent Zorbax Eclipse 50 × 2.1 mm; 1.7 μm).

[10] = Caco-2 passive permeability; settings: human, Caco-2, with 5 μM elacridar and 20 μM cyclosporine A

| Compound | Binding to the exTrkB receptor [1] | Orthosteric activity (induction of TrkB phosphorylation) [2] | Metabolic stability in HLM (classification) [3] | Metabolic stability in MLM (classification) [4] | PAMPA [6] | Chemical Stability [% of Degradation] [7] | Clint HLM [3] | Clint MLM [4] | Papp,AB [8] | Papp,BA [8] | also measured |
| --- | --- | --- | --- | --- | --- | --- | --- | --- | --- | --- | --- |
| NCCCC[C@H](NC(=O)[C@H](CO)NC(=O)CCC(=O)O)C(=O)NCCCCCCNC(=O)[C@H](CCCCN)NC(=O)[C@H](CO)NC(=O)CCC(=O)O [GSB-106, [OH-Suc-Ser-Lys-NH-(CH2)3-]2] | not observed | did not observe any orthosteric activity | instability of this compound in the experimental system | instability of this compound in the experimental system | 0.85 10^−6·cm/s | Stable | – | – | – | – | Kinetic Solubility [5]: 152.7 µM |
| OCCN(CCO)c1ccc(C(c2ccc(Cl)cc2)c2ccc(N(CCO)CCO)cc2)cc1 [LM22-B10] | not observed | did not observe any orthosteric activity | moderately stable | stable | 2.36 10^−6·cm/s | 4.18% | 29 μL·min^−1·mgprotein^−1 | 4.8 μL·min^−1·mgprotein^−1 | 6.47 10^−6·cm/s | 4.97 10^−6·cm/s | Kd ([1]; non-binding compounds given as 0): 83 µM |
| 7-hydroxy-8-methoxyflavone (7H8M-flavone) and 8-hydroxy-7-methoxyflavone (8H7M-flavone) [7H8M-flavone 8H7M-flavone] | – | – | – | – | – | – | – | – | – | – | C brain, individual mice ([9]; 50 mg/kg): < LLQ; C brain, individual mice ([9]; iv, 1 mg/kg): < LLQ; C plasma, individual mice ([9]; iv, 1 mg/kg): < LLQ; Time of maximal plasma concentration ([9]; iv, 1 mg/kg): 5 min; Time of maximal plasma concentration ([9]; po, 50 mg/kg): 10 min |
| CN(C)c1ccc(-c2cc(=O)c3ccc(O)c(O)c3o2)cc1 [4′-dimethylamino-7,8-DHF] | not observed | did not observe any orthosteric activity | highly unstable | highly unstable | 15.5 10^−6·cm/s | 1.31% | 175.7 μL·min^−1·mgprotein^−1 | 365.1 μL·min^−1·mgprotein^−1 | 15.61 10^−6·cm/s | 9.03 10^−6·cm/s | Permeability in Caco-2 system (good permeability) [8]: > 10^−6 cm/s; Permeability in PAMPA assay (good permeability) [6]: > 10^−6 cm/s |
| COc1ccc(-c2cc3cccc(O)c3c(=O)o2)cc1 [Isocumarin, 8-hydroxy-3-(4′-methoxyphenyl)-isocumarin] | not observed | did not observe any orthosteric activity | highly unstable | highly unstable | 0.22 10^−6·cm/s | Stable | – | – | – | – | microsomal CLint at 1 μM ([3]; human, liver microsomes): 781 µL/min/mg; microsomal CLint at 1 μM ([4]; mouse, liver microsomes): 407 µL/min/mg; Papp A→B at 2 h [10]: 1.6 ×10⁻⁶ cm/s; Papp B→A at 2 h [10]: 2.18 ×10⁻⁶ cm/s |
